Data on four molecules can be found in patent US20210032598A1, “ACTIVATION-INDUCED TISSUE-EFFECTOR CELLS SUITABLE FOR CELL THERAPY AND EXTRACELLUAR VESICLES DERIVED THEREFROM” (Capricor, Inc., priority 2018, published 2021).

The test system of one experiment is CD90 expression in CDCs. As to the kind of experiment: Flow cytometry of CD90 expression in CDCs. Type of experiment: cell-based, human. On the procedure:
Referring to FIG. 2, CDCs from two donors (Donor1 and Donor12) were prepared as described herein. The attached CDCs were treated with 30 μM CHIR (Selleckchem, Cat. #S1263), a GSK3β inhibitor, or with no treatment for 72 hours. The cells were then collected, washed with 1% bovine serum albumin (BSA) in 1× phosphated-buffered saline (PBS), and stained with FITC Mouse Anti-Human CD90 (BD Biosciences, Cat. #555595). Flow cytometry was then conducted in BD FACSCanton™ II machine to measure CD90 expression in cells.
(§1) Referring to FIG. 9B, CDCs from Donor 5 were treated with different concentrations of BIO (Sigma-Aldaich, Cat #B1685), a GSK3β inhibitor, for 72 hours. The cells were then collected and lysed with 1× lysis buffer supplied Total β-catenin ELISA (Affymetrix eBioscience InstantOne™ ELISA, Cat. #85-86141-11). Total β-catenin ELISA was performed as per manufacturer's instructions, except that 0.01 mg/mL final protein concentration was used in the assay.
Flow cytometry. Cells were harvested and counted (2×10^5 cells per condition). Cells were washed with 1% bovine serum albumin (BSA) in 1× Phosphated-buffered saline (PBS), and stained with the appropriate antibody (BD Pharmingen) for 1 hr at 4° C. The cells were then washed again and resuspended in 1% BSA in 1×PBS. BD Cytofix/Cytoperm™ kit was used for cell permeabilization before staining, such as LRP5/6 staining. […]
Background: A flow cytometer gives signals particle by particle.

A further experiment concerns β-catenin levels in CDCs. As to the kind of experiment: Total β-catenin ELISA in CDCs. Format: cell-based, human. As for the experimental part:
as §1
Referring to FIG. 10, the effect of BIO (as measured by sustained β-catenin activation per ELISA) was measured in CDCs from Donor10. Zero hour is immediately drug wash-off time point following a 72 hour of 5 μM BIO treatment period.
(§2) Cell lysate and protein assay. 4×10^5 cells were collected and pelleted at 1,000 rpm for 5 min at 4° C. Cell pellets were thoroughly mixed with 1× lysis buffer (Affymetrix eBioscience InstantOne ELISA kit) by vortexing and rotating for 10 min at room temperature. Protein lysate was isolated from the cell lysate mixture after centrifugation at 14,000 rpm for 15 min at 4° C. Protein concentration was determined by DC™ Protein Assay kit (Bio-Rad).
(§3) ELISA. Protein collection and protein concentration determination were as described above. Total β-catenin ELISA was performed according the protocol described with final sample concentration of 0.01 mg/ml and positive control of 0.1 mg/ml (ThermoFisher eBioscience InstantOne™ ELISA).

Experiment [1] concerns β-catenin levels in immortalized CDCs. As to the kind of experiment: Total β-catenin ELISA in immortalized CDCs. Type of experiment: cell-based, human. As to conditions: SV40 T+t immortalized CDCs from Donor2; 5 μM BIO for 72 hours vs 0 μM. On the procedure: as §2, §3
A general note: In an ELISA, binding on a coated surface is turned into a signal by an enzyme label.

The subject of experiment [2] is β-catenin levels in explant-derived cells (EDCs). As to the kind of experiment: β-catenin ELISA in explant-derived cells (EDCs). As to conditions: EDCs from Donor1 and Donor12; BIO for 72 hours compared with sphere formation. Format: cell-based, human.
The subject of experiment [3] is β-catenin levels in kidney cortex cells. As to the kind of experiment: β-catenin levels in kidney cortex cells. Type of experiment: cell-based. As to conditions: FIG. 18B.
Experiment [4] concerns mice with acute myocardial infarction. As to the kind of experiment: Mouse model of acute myocardial infarction, change in left ventricular ejection fraction (echocardiography). Type of experiment: in vivo, mouse (SCID beige). As to conditions: 0.1 mg drug injected to heart; measured three weeks after surgery.
Method: Briefly, 8-week old male severe combined immunodeficient (SCID) beige mice were anesthetized with isoflurane. Following surgical preparation, a 2 cm vertical incision was performed in the midclavicular line for a lateral thoracotomy. The left anterior descending was ligated using 7-0 silk. Animals then received intramyocardial injections of injected at two peri-infarct sites with 10^5 cells (or phosphate buffered saline as a vehicle) in a total of 20 μl (10 μl/site). Echocardiography measurements were taken (to measure change left ventricular ejection fraction) at day 1 post and week 3 post infarction.
Acute myocardial infarction was applied to the three-month-old male severe combined immunodeficient (SCID)—beige mice as previously described. 1×10^5 desired cells or 20 μl of 14 mM drug (BIO or JW67) or exosomes were injected to the SCID heart for rescuing.
Echocardiography. Echocardiography study was performed in the SCID beige in 24 hr (baseline) and 3 weeks after surgery using Vevo 3100 or 770 Imaging System (Visual Sonics) as described^8. The average of the left ventricular ejection fraction was analyzed from multiple left ventricular end-diastolic and left ventricular end-systolic measurements.
The subject of experiment [5] is CD90 expression in immortalized CDCs. The experiment can be described thus: Flow cytometry of CD90 expression in immortalized CDCs. Type of experiment: cell-based, human. As to conditions: Wnt3a for 72 hours, vs vehicle. On the procedure: Referring to FIG. 3-5, CDCs from immortalized Donor2 were plated on either fibronectin (FN; VWR, Cat. #356009)-coated or CellBIND® (CB)-coated flasks. Attached cells were treated with Wnt3a or with PBS vehicle (ddH2O) for 72 hours. The cells were then analyzed using flow cytometry for CD90 expression with the same protocol as described herein.
Flow cytometry. Cells were harvested and counted (2×10^5 cells per condition). Cells were washed with 1% bovine serum albumin (BSA) in 1× Phosphated-buffered saline (PBS), and stained with the appropriate antibody (BD Pharmingen) for 1 hr at 4° C. The cells were then washed again and resuspended in 1% BSA in 1×PBS. BD Cytofix/Cytoperm™ kit was used for cell permeabilization before staining, such as LRP5/6 staining. The flow cytometry was performed in BD FACSCanto™ II machine.

As to `O=C1Nc2cc(Br)ccc2/C1=C1/Nc2ccccc2/C1=N\O` [BIO, 6-bromoindirubin-3′-oxime], the CD90 levels result in the experiment on CD90 expression in CDCs (CDCs from Donor5, increasing BIO concentrations) was “decreasing CD90 levels with increasing BIO concentrations”. In the experiment on β-catenin levels in CDCs (CDCs from Donor5, different concentrations of BIO for 72 hours), the “levels of β-catenin” value is listed as “increased with increasing BIO concentration”. The “time of peak β-catenin activation after drug washout” value in the experiment with β-catenin levels in CDCs (CDCs from Donor10, after 72 hour 5 μM BIO treatment) came to 24 h. For the same molecule, the “duration of effect of BIO treatment after washout” value in the experiment on β-catenin levels in CDCs (FIG. 10, β-catenin activation per ELISA) is on record as “at least 24 hours”. Further, the β-catenin restoration result is reported as “successful β-catenin restoration” in the experiment on β-catenin levels in CDCs (non-potent CDCs from Donor5, 10 μM BIO for 72 hours vs 0 μM); “successful β-catenin restoration” with β-catenin levels in CDCs (non-potent CDCs from Donor6-2, 5 μM BIO for 72 hours vs control vehicle); “successful β-catenin restoration” in experiment [1]. In addition, the β-catenin expression result in experiment [2] is given as “equal or better enhanced β-catenin expression”. Also, the β-catenin levels entry in experiment [3] is “further increases β-catenin levels”. In addition, the “cardiac recovery (cardiac ejection fraction change)” value in experiment [4] was “improves cardiac recovery”.
`Cc1cnc(-c2cnc(NCCNc3ccc(C#N)cn3)nc2-c2ccc(Cl)cc2Cl)[nH]1` [CHIR, 6-[[2-[[4-(2,4-Dichlorophenyl)-5-(5-methyl-1H-imidazol-2-yl)-2-pyrimidinyl]amino]ethyl]amino]-3-pyridinecarbonitrile]: in the experiment with CD90 expression in CDCs (30 μM CHIR for 72 hours, CDCs from Donor1 and Donor12, vs no treatment), the CD90 levels result was “decreased the CD90 levels”.
As for `O=C1Nc2ccccc2C12OCC1(CO2)COC2(OC1)C(=O)Nc1ccccc12` (centres unmarked) [JW67, Trispiro[3H-indole-3,2′-[1,3]dioxane-5′5″-[1,3]dioxane-2″,3′″-[3H]indole]-2,2′″(1H,1′″H)-dione(9Cl)], the “cardiac recovery (cardiac ejection fraction change)” value in experiment [4] is reported as “improves cardiac recovery”.

B1: Wnt3a: activator of the Wnt signaling pathway (protein, UniProt P56704 19-352, looked up)
Protein Wnt-3a: SYPIWWSLAVGPQYSSLGSQPILCASIPGLVPKQLRFCRNYVEIMPSVAEGIKIGIQECQHQFRGRRWNCTTVHDSLAIFGPVLDKATRESAFVHAIASAGVAFAVTRSCAEGTAAICGCSSRHQGSPGKGWKWGGCSEDIEFGGMVSREFADARENRPDARSAMNRHNNEAGRQAIASHMHLKCKCHGLSGSCEVKTCWWSQPDFRAIGDFLKDKYDSASEMVVEKHRESRGWVETLRPRYTYFKVPTERDLVYYEASPNFCEPNPETGSFGTRDRTCNVSSHGIDGCDLLCCGRGHNARAERRREKCRCVFHWCCYVSCQECTRVYDVHTCK
For B1, the values for the CD90 level entry in experiment [5] (immortalized Donor2 CDCs on CellBIND (CB)-coated flasks) and in experiment [5] (immortalized Donor2 CDCs on fibronectin (FN)-coated flasks) were “no such effect is observed” and “decreased the CD90 level”, respectively.
